# Source: patent publication US5292729A, “II-bond aromatic vitamin chelates” (Albion International, Inc., priority 1992, dated 1994)
# Legend:
# [1] = 65Zn level in blood of rats after oral gavage, scintillation count; details: oral 0.03 mg Zn, 15 μcuries 65Zn, mean ± standard deviation
# Protocol: (§1) The chelate thus prepared was diluted such that a 5 μl dose contained about 0.03 mg Zn and 15 μcuries of ^65 Zn activity. This dose, when administered to a standard laboratory rat weighing 150±25 gms, closely approximates the RDA of 15 mg Zn for a human being weighing about 70 kg.
# (§2) Ten Sprague Dawley rats, weighing 190±10 grams each were divided into two groups of five rats. Five rats were designated the test group and the other five rats the control group.
# (§3) No surgery was performed as all animals were given light doses of nembutal (40 mg/kg) to improve ease of handling and minimize injury during lavage and bloodletting.
# Beginning 30 minutes after dosing and continuing at 30 minute intervals up to a period of 3 hours following dosing, 0.1 ml of blood was withdrawn from rats in both the test and control groups. The blood was then analyzed for ^65 Zn by scintillation count.
# [2] = 65Zn isotope levels in urine and tissues of sacrificed rats
# Protocol: as §1, §2, §3
# The rats used in Example 22 were sacrificed after completion of the testing and the urine, liver, muscle, kidney, brain and spleens from the animals in each grouping were collected for comparative ^65 zinc isotope levels.
smiles,measurement,setting,value
[Cl-].[Cl-].[Zn+2] [ZnCl2],65Zn in blood,[1]; 0.5 hrs after dosing,210 ± 11 CCPM
same,65Zn in blood,[1]; 1.0 hrs after dosing,226 ± 14 CCPM
same,65Zn in blood,[1]; 1.5 hrs after dosing,212 ± 26 CCPM
same,65Zn in blood,[1]; 2.5 hrs after dosing,206 ± 8 CCPM
same,65Zn in blood,[1]; 3.0 hrs after dosing,207 ± 8 CCPM
same,65Zn in brain,"[2]; brain, after 3 hour test",0 CCPM
same,65Zn in kidney,"[2]; kidney, after 3 hour test",24 CCPM
same,65Zn in liver,"[2]; liver, after 3 hour test",50 CCPM
same,65Zn in muscle,"[2]; muscle, after 3 hour test",0 CCPM
same,65Zn in spleen,"[2]; spleen, after 3 hour test",16 CCPM
same,excretion of zinc compared with the chelated form,[2]; urine,excreted more readily
same,65Zn in urine,"[2]; urine, after 3 hour test",38 CCPM
